Reference: patent US20230271965A1, “BICYCLIC HETEROARENES AND METHODS OF THEIR USE” (Kineta, Inc., priority 2020, published 2023)
Where two headings read alike, the source gives them in different places. Each block holds one compound with its values, some of them ahead of it.

Experiments:
[1] = target: T1, full-length human PIKFYVE (GST-PIKFYVE) (Homo sapiens, UniProt Q9Y2I7, L932S/Q1183K/Q995L/S1033A/S696N/T998S); assay: PIKfyve biochemical assay (ADP-Glo Kinase assay, Carna Biosciences)
T1 construct: A full-length human PIKFYVE [1-2098 (end) amino acids; purchased Carna Biosciences; host or cells: baculovirus expression system
Protocol: PIKfyve Biochemical Assay. The biochemical PIKFyve inhibition assays were run by Carna Biosciences according to proprietary methodology based on the Promega ADP-Glo™ Kinase assay. […] GST-PIKFYVE was purified by using glutathione sepharose chromatography and used in an ADP-Glo™ Kinase assay (Promega). Reactions were set up by adding the test compound solution, substrate solution, ATP solution and kinase solution, each at 4×final concentrations. Reactions were prepared with assay buffer (50 mM MOPS, 1 mM DTT, pH7.2), mixed, and incubated in black 384 well polystyrene plates for 1 hour at room temperature. ADP-Glo™ reagent was then added for 40 minutes, followed by kinase detection reagent for an additional 40 minutes. The kinase activity was evaluated by detecting relative light units on a luminescence plate reader. Samples were run in duplicate from 10 μM to 3 nM. […] IC50 values were calculated from concentration vs % inhibition curves by fitting to a four-parameter logistic curve.
The biochemical PIKFyve inhibition assays were run by Carna Biosciences according to proprietary methodology based on the Promega ADP-Glo™ Kinase assay. […] GST-PIKFYVE was purified by using glutathione sepharose chromatography and used in an ADP-Glo™ Kinase assay (Promega).
Reactions were set up by adding the test compound solution, substrate solution, ATP solution and kinase solution, each at 4×final concentrations. Reactions were prepared with assay buffer (50 mM MOPS, 1 mM DTT, pH7.2), mixed, and incubated in black 384 well polystyrene plates for 1 hour at room temperature. ADP-Glo™ reagent was then added for 40 minutes, followed by kinase detection reagent for an additional 40 minutes. The kinase activity was evaluated by detecting relative light units on a luminescence plate reader. Samples were run in duplicate from 10 uM to 3 nM. […] IC50 values were calculated from concentration vs % inhibition curves by fitting to a four-parameter logistic curve.

[2] = system: PIKFYVE TDP-43 yeast strain; assay: Propidium iodide viability assay, PIKFYVE TDP-43 yeast strain; type: cell-based; details: Saccharomyces cerevisiae; reduction in PI-positive cells, 24 hours, values plotted in FIG. 7
Source text: Generation of TDP-43 yeast model expressing human PIKfyve. Human PIKFYVE (“entry clone”) was cloned into pAG416GPDccdB (“destination vector”) according to standard Gateway cloning protocols (Invitrogen, Life Technologies). The resulting pAG416GPD-PIKFYVE plasmids were amplified in E. coli and plasmid identity confirmed by restriction digest and Sanger sequencing. Lithium acetate/polyethylene glycol-based transformation was used to introduce the above PIKFYVE plasmid into a BY4741 yeast strain auxotrophic for the ura3 gene and deleted for two transcription factors that regulate the xenobiotic efflux pumps, a major efflux pump, and FAB1, the yeast ortholog of PIKFYVE (MATa, snq2::KILeu2; pdr3::KIura3; pdr1::NATMX; fab1::G418^R, his3; leu2; ura3; met15; LYS2+) (FIG. 2).
Transformed yeast were plated on solid agar plates with complete synthetic media lacking uracil (CSM-ura) and containing 2% glucose. Individual colonies harboring the control or PIKFYVE TDP-43 plasmids were recovered. A plasmid containing wild-type TDP-43 under the transcriptional control of the GAL1 promoter and containing the hygromycin-resistance gene as a selectable marker was transformed into the fab1::G418^R pAG416GPD-PIKFYVE yeast strain (FIG. 1). Transformed yeast were plated on CSM-ura containing 2% glucose and […] after overnight recovery in media lacking antibiotic. Multiple independent isolates were further evaluated for cytotoxicity and TDP-43 expression levels.
Viability Assay. A control yeast strain with the wild-type yeast FAB1 gene and TDP-43 (“FAB1 TDP-43”, carries empty pAG416 plasmid), and the “PIKFYVE TDP-43” yeast strain, were assessed for toxicity using a propidium iodide viability assay. Both yeast strains were transferred from solid CSM-ura/2% glucose agar plates into 3 mL of liquid CSM-ura/2% glucose media for 6-8 hours at 30° C. with aeration. Yeast cultures were then diluted to an optical density at 600 nm wavelength (OD600) of 0.005 in 3 mL of CSM-ura/2% raffinose and grown overnight at 30° C. with aeration to an OD600 of 0.3-0.8. Log-phase overnight cultures were diluted to OD600 of 0.005 in CSM-ura containing either 2% raffinose or galactose and 150 μL dispensed into each well of a flat bottom 96-well plates. Compounds formulated in 100% dimethyl sulfoxide (DMSO) were serially diluted in DMSO and 1.5 μL diluted compound transferred to the 96-well plates using a multichannel pipet. Wells containing DMSO alone were also evaluated as controls for compound effects. Tested concentrations ranged from 15 μM to […]. Cultures were immediately mixed to ensure compound distribution and covered plates incubated at 30° C. for 24 hours in a stationary, humified incubator.
Upon the completion of incubation, cultures were assayed for viability using propidium iodide (PI) to stain for dead/dying cells. A working solution of PI was made where, for each plate, 1 μL of 10 mM PI was added to 10 mL of CSM-ura (raffinose or galactose). The final PI solution (50 μL/well) was dispensed into each well of a new round bottom 96-well plate. The overnight 96-well assay plate was then mixed with a multichannel pipet and 50 μL transferred to the PI-containing plate. This plate was then incubated for 30 minutes at 30° C. in the dark. A benchtop flow cytometer (Miltenyi MACSquant) was then used to assess red fluorescence ([…]), forward scatter, and side scatter (with following settings: gentle mix, high flow rate, fast measurement, 10,000 events). Intensity histograms were then gated for “PI-positive” or “PI-negative” using the raffinose and galactose cultures treated with DMSO as controls. The DMSO controls for raffinose or galactose-containing cultures were used to determine the window of increased cell death and this difference set to 100. All compounds were similarly gated and then compared to this maximal window to establish the percent reduction in PI-positive cells.

[3] = target: T2, PIKfyve (PIKFYVE-NanoLuc fusion in HEK293 cells) (Homo sapiens, UniProt Q9Y2I7); assay: NanoBRET TE Intracellular Kinase Assay, K-8 (Promega) cell-based assay; details: 2 hours, read-out: hPIKfyve BRET IC50
T2 construct: containing a full-length PIKfyve according to manufacturer's specifications; host or cells: HEK293
Protocol: NanoBRET™ TE Intracellular Kinase Assay, K-8 (Promega) Cell-Based Assay. Intracellular inhibition of PIKfyve was assayed using Promega's NanoBRET™ TE Intracellular Kinase Assay, K-8 according to manufacturer's instructions. A dilution series of test compounds was added for 2 hours to HEK293 cells transfected for a minimum of 20 hours with PIKFYVE-NanoLuc® Fusion Vector (Promega) containing a full-length PIKfyve according to manufacturer's specifications in a 96-well plate. Kinase activity was detected by addition of a NanoBRET™ tracer reagent, which was a proprietary PIKfyve inhibitor appended to a fluorescent probe (BRET, bioluminescence resonance energy transfer). Test compounds were tested at concentrations of 10, 3, 1, 0.3, 0.1, 0.03, 0.01, 0.003 μM. BRET signals were measured by a GloMax® Discover Multimode Microplate Reader (Promega) using 0.3 sec/well integration time, 450BP donor filter and 600LP acceptor filters. Active test compounds that bound PIKfyve and displaced the tracer reduced BRET signal. IC50 values were then calculated by fitting the data to the normalized BRET ratio.

[4] = ADP-Glo, full-length human PIKFYVE, read-out: hPIKfyve IC50
[5] = ADP-Glo with full-length PIKfyve, read-out: PIKfyve IC50
[6] = values plotted in FIG. 7, read-out: PIKFYVE Biochemistry (IC50)

T1 sequence (Q9Y2I7 whole entry S696N/L932S/Q995L/T998S/S1033A/Q1183K): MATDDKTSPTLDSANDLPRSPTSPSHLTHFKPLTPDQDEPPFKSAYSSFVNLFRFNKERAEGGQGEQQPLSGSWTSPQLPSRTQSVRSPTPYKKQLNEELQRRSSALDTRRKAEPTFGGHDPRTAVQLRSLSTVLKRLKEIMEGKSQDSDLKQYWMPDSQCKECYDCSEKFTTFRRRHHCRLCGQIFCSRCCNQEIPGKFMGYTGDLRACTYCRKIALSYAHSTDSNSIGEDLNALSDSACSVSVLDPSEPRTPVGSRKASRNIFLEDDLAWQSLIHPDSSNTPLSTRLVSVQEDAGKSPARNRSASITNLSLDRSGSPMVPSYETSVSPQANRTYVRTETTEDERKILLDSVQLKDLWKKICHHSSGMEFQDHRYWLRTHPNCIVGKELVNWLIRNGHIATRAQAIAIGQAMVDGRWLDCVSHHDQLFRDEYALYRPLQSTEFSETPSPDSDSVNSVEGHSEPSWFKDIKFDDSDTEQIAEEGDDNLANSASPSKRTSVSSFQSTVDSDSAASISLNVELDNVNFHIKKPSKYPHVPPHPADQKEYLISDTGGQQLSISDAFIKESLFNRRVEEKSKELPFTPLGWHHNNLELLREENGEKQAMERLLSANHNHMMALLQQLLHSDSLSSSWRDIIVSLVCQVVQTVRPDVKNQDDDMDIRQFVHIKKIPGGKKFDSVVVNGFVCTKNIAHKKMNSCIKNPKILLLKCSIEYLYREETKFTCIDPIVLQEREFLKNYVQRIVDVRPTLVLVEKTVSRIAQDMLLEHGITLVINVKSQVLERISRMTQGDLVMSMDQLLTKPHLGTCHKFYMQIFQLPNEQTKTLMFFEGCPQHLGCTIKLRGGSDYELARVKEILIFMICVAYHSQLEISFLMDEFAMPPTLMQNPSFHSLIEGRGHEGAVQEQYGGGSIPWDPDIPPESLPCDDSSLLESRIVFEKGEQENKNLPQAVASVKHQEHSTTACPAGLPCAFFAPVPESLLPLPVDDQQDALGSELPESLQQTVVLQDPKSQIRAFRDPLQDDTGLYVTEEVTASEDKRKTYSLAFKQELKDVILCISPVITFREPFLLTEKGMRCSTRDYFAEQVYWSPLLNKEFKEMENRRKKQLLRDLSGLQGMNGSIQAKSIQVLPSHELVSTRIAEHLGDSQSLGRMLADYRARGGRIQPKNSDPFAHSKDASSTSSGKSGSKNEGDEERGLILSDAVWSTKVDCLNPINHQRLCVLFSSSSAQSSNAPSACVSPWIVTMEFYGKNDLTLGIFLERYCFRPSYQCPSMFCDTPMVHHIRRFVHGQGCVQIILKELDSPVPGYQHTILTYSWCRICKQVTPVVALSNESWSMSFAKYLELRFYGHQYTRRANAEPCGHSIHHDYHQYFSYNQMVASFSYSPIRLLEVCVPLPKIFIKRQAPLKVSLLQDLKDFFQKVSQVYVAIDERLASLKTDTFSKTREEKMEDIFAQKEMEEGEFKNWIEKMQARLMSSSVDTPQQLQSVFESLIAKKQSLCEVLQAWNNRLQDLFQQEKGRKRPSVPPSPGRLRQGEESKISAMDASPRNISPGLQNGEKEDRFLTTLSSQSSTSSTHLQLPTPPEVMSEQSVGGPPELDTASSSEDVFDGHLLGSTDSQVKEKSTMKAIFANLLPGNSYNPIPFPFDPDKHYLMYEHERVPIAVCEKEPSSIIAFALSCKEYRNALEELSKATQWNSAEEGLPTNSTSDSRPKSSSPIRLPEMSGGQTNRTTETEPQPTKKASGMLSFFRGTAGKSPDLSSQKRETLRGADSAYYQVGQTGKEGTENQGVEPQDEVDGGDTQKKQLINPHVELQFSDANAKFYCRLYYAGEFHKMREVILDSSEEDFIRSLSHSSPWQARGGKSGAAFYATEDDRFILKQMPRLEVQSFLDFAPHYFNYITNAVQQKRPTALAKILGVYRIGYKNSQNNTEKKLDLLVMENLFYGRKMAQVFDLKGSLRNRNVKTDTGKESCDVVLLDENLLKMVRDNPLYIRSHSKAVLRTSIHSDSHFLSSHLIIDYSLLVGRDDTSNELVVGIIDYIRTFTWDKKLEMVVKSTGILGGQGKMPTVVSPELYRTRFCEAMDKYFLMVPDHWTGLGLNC
T2 sequence (Q9Y2I7 whole entry, the tested form may be a part): as the sequence (Q9Y2I7 whole entry S696N/L932S/Q995L/T998S/S1033A/Q1183K) above, with N696S, S932L, L995Q, S998T, A1033S, K1183Q counted along it

IC50 [1, 4]: 1000 to 10000 nM
SMILES: c1ccc(N2CCc3c(NC4COC4)nc(N4CCOCC4)nc32)cc1 [Compound 48, 2-morpholino-N-(oxetan-3-yl)-7-phenyl-6,7-dihydro-5H-pyrrolo[2,3-d]pyrimidin-4-amine]

SMILES: Cc1cccc(/C=N/Nc2nc(N3CCOCC3)c3nc(-c4ccncc4)n(C)c3n2)c1 [drawing 252]
IC50 [1, 5]: 4.9 nM

SMILES: c1ccc(Cc2ncccc2-c2cc(N3CCOCC3)n3nc(-c4ccncc4)cc3n2)cc1
IC50 [1, 6]: 1090 nM | IC50 [2]: > 15000 nM

SMILES: Fc1cccc(-c2ccnn2-c2nc(N3CCOCC3)c3ncccc3n2)c1
IC50 [2]: 5750 nM

SMILES: c1ccc(N2CCc3c(OCc4cccnc4)nc(N4CCOCC4)nc32)cc1 [Compound 3]
IC50 [3]: 10 to 100 nM

SMILES: COc1nc(N2CCOCC2)nc2c1CCN2c1ccccc1 [Compound 16, 4-(4-methoxy-7-phenyl-6,7-dihydro-5H-pyrrolo[2,3-d]pyrimidin-2-yl)morpholine]
IC50 [3]: 100 to 1000 nM

SMILES: Cn1c(-c2ccncc2)nc2c(N3CCOCC3)ncnc21 [drawing 265]
IC50 [1, 6]: 640 nM | IC50 [2]: > 15000 nM

SMILES: O=c1ccc(-c2ccccc2)nn1-c1cc(N2CCOCC2)n2nc(-c3ccncc3)cc2n1
IC50 [1, 6]: 295 nM | IC50 [2]: > 15000 nM

SMILES: CC(C)(C)OC(=O)N1CCC(OCc2nc(N3CCOCC3)nc3c2CCN3c2cccnc2)C1 (centres unmarked) [Compound 15, tert-butyl 3-((2-morpholino-7-(pyridin-3-yl)-6,7-dihydro-5H-pyrrolo[2,3-d]pyrimidin-4-yl)methoxy)pyrrolidine-1-carboxylate]
IC50 [1, 4]: 1000 to 10000 nM

IC50 [1, 4]: 10 to 100 nM
SMILES: c1ccc(N2CCc3c(OCC4CCCO4)nc(N4CCOCC4)nc32)cc1 (centres unmarked) [Compound 8]

IC50 [1, 4]: 10 to 100 nM
SMILES: c1cncc(-c2nc(N3CCOCC3)nc3c2CCN3c2ccc3c(c2)OCCO3)c1 [Compound 64, 4-(7-(2,3-dihydrobenzo[b][1,4]dioxin-6-yl)-4-(pyridin-3-yl)-6,7-dihydro-5H-pyrrolo[2,3-d]pyrimidin-2-yl)morpholine]

SMILES: Oc1cc(-c2ccccc2)nn1-c1cc(N2CCOCC2)n2nc(-c3ccncc3)nc2n1
IC50 [1, 6]: 18 nM | IC50 [2]: 693 nM

SMILES: c1ccc(-c2ccnc(-c3cc(N4CCOCC4)nc(OCc4ccncc4)n3)n2)cc1
IC50 [1, 6]: 32 nM | IC50 [2]: 1450 nM

IC50 [1, 4]: 10 to 100 nM
SMILES: c1ccc(N2CCc3c(Cc4ccccn4)nc(N4CCOCC4)nc32)cc1 [Compound 37, 4-(7-phenyl-4-(pyridin-2-ylmethyl)-6,7-dihydro-5H-pyrrolo[2,3-d]pyrimidin-2-yl)morpholine]

SMILES: Cc1cccc(/C=N/Nc2nc(N3CCOCC3)c3ncccc3n2)c1
IC50 [1, 6]: 18 nM | IC50 [2]: 8210 nM

SMILES: Cc1cccc(/C=N/Nc2cc(N3CC4CC3CO4)n3nc(-c4ccncc4)cc3n2)c1 (centres unmarked)
IC50 [1, 5]: 12 nM

SMILES: CN(C)c1cc(N2CCOCC2)n2nc(-c3ccncc3)cc2n1
IC50 [1, 5]: 2010 nM

SMILES: c1cc(COc2nc(N3CCOCC3)cc(-n3cc4c(n3)COCC4)n2)ccn1
IC50 [1, 6]: 1340 nM | IC50 [2]: > 15000 nM

SMILES: Cc1cccc(/C=N/Nc2cc(N3CCOCC3)nc(OCCc3ccc(CN)cc3)n2)c1
IC50 [1, 6]: 7 nM | IC50 [2]: 1120 nM

SMILES: c1ccc(-c2cccc(-c3cc(N4CCOCC4)n4nc(-c5ccncc5)cc4n3)n2)cc1
IC50 [1, 6]: 14 nM | IC50 [2]: 230 nM

SMILES: c1ccc(-c2nc(-c3cc(N4CCOCC4)nc(OCc4ccncc4)n3)no2)cc1
IC50 [2]: > 15000 nM

SMILES: c1cc(-c2nc3nc(N4CCOCC4)cc(N4CCOCC4)n3n2)ccn1
IC50 [1, 6]: 9200 nM | IC50 [2]: > 15000 nM

SMILES: Oc1cc(C2CCOCC2)nn1-c1cc(N2CCOCC2)n2nc(-c3ccncc3)cc2n1
IC50 [1, 6]: 253 nM | IC50 [2]: 9100 nM

SMILES: c1ccc(-c2ccnn2-c2cc(N3CCOCC3)n3nc(-c4ccncc4)nc3n2)cc1
IC50 [1, 6]: 767 nM | IC50 [2]: > 15000 nM

SMILES: O=c1c(CCOc2cccnc2)cc2ncncc2n1-c1ccccc1
IC50 [2]: > 15000 nM

SMILES: c1cc(-c2cc3nc(C4CNC4)cc(N4CCOCC4)n3n2)ccn1
IC50 [1, 6]: 8020 nM | IC50 [2]: > 15000 nM

SMILES: COc1nc(N2CCOCC2)nc2c1CCN2c1ccccc1 [drawing 274]
IC50 [1, 6]: 85 nM | IC50 [2]: 4270 nM

IC50 [1, 4]: 100 to 1000 nM
SMILES: c1cncc(N2CCc3c(COC4CCNC4)nc(N4CCOCC4)nc32)c1 (centres unmarked) [Compound 13, 4-(7-(pyridin-3-yl)-4-((pyrrolidin-3-yloxy)methyl)-5,6-dihydro-5H-pyrrolo[2,3-d]pyrimidin-2-yl)morpholine]

SMILES: c1ccc(N2CCc3c(OCc4cccnc4)nc(N4CCOCC4)nc32)cc1 [drawing 275]
IC50 [1, 6]: 42 nM | IC50 [2]: 2680 nM

SMILES: Cn1c(-c2ccncc2)nc2c(N3CCOCC3)ncnc21 [drawing 253]
IC50 [1, 5]: 640 nM

IC50 [1, 4]: 10 to 100 nM
SMILES: c1ccc(N2CCc3c(OCc4ccncc4)nc(N4CCOCC4)nc32)cc1 [Compound 4]

SMILES: O=c1ccn(Cc2nc(N3CCOCC3)cc(-n3nccc3-c3ccccc3)n2)cc1
IC50 [2]: > 15000 nM

IC50 [1, 4]: 100 to 1000 nM
SMILES: c1ccc(Cc2nc(N3CCOCC3)nc3c2CCN3c2cccnc2)nc1 [Compound 38]

IC50 [1, 4]: 1000 to 10000 nM
SMILES: CN1CCCC(COc2nc(N3CCOCC3)nc3c2CCN3c2ccccc2)C1 (centres unmarked) [Compound 7]

SMILES: Cc1cccc(/C=N/Nc2nc(N3CCOCC3)c3nc(-c4ccncc4)n(C)c3n2)c1 [drawing 266]
IC50 [1, 6]: 5 nM | IC50 [2]: 4720 nM

SMILES: c1ccc(C2CN(c3cc(N4CCOCC4)n4nc(-c5ccncc5)cc4n3)CCN2)cc1 (centres unmarked)
IC50 [1, 6]: 2660 nM | IC50 [2]: > 15000 nM
